Measured values published in patent US20180163177A1, “SERUM-FREE CULTURE MEDIUM AND METHOD FOR EXPANDING HEMATOPOIETIC STEM CELLS” (HealthBanks Biotech Co. Ltd., priority 2016, published 2018).

System: CD34+ HSC
Assay: HSC expansion without feeder layer, in SF-UCM or concentrated SF-UCM with supplements, 12-day culture
Type: cell-based
Conditions: day 12; no feeder layer; SCGM with 6 cytokines and hydrocortisone
Text: To test potential replacement for the feeder layers, we have tested a serum-free umbilical cord mesenchymal stem cell conditioned medium (SF-UCM) from UC-MSC. The serum-free umbilical cord mesenchymal stem cell conditioned medium is for example produced by the method described above, comprising the steps of: (a) culturing an umbilical cord mesenchymal stem cell in a serum-free cell culture medium (e.g. serum-free SCGM), and (b) isolating the conditioned cell culture medium.
In FIG. 3A and FIG. 3B, the positive control (PC) group is in IMDM as described above. The PC & S1 groups shown in FIG. 3A and 3B are grown as follows: At day 0, CD34+ HSC are thawed and co-cultured with UC-MSC feeder for 12 days with a cell density of 2.5×10^4 cells/ml, using 5% CS (cord serum)/IMDM medium containing the 6 cytokines and hydrocortisone for PC group or using SCGM containing 6 cytokines, hydrocortisone and 4 supplements for S1 group.
The S3-2 group was grown as follows: At day 0, CD34+ HSC are thawed and cultured in a culture medium mixture of 50% (v/v) SF-UCM and 50% (v/v) fresh SCGM containing 6 cytokines, hydrocortisone and 4 supplements with a cell density of 2.5×10^4 cells/ml for 12 days. The 6 cytokines, hydrocortisone and 4 supplements used herein are the same as described in example 2.
During 12-day culture, 50% culture medium is replenished as well as newly prepared UC-MSC feeder every 4 days, and CD34+ cells are maintained at a cell density of 2.5-5×10^4 cells/ml. At day 12, cumulative total cell expansion folds and CD34+ expansion folds are calculated.
The following experiment is performed to evaluate the effect of replacing feeder layers with SF-UCM or concentrated SF-UCM. The SF-UCM obtained in Example 3 was further concentrated with a 5-10 kDa cut-off membrane (preferably a 5 kDa cut-off membrane) to obtain 10 times concentrated (in volume) conditioned medium. The concentrated conditioned medium was filtered with a 0.22 μm filter, and the filtrate is collected to obtain the desired con. SF-UCM (abbreviated as “c-SF-UCM”). The results of replacing the feeder layers with SF-UCM or con.
In FIG. 4A and 4B, the PC, Sl, and S3-2 groups are the same as described in Example 3. The S3-3 group is as follows: At day 0, CD34+ HSC are thawed and cultured in a culture medium mixture of 5% (v/v) concentrated SF-UCM and 95% (v/v) SCGM containing 6 cytokines, 4 supplements, and hydrocortisone with a cell density of 2.5×10^4 cells/ml for 12 days. The 6 cytokines, hydrocortisone and 4 supplements used herein are the same as described in example 2. The above medium mixture is 50% replenished every 4 days and the cells (including CD34+ cells) are maintained at a cell density of 2.5-10×10^4 cells/ml. At day 12, cumulative total cell expansion folds and CD34+ (ISHAGE) expansion folds are calculated.
At day 0, CD34+ HSC are thawed and cultured in a corresponding culture medium in the following groups: (1) SCGM+SP+UCM group: a culture medium mixture of 5% (v/v) c-SF-UCM and 95% (v/v) SCGM containing 6 cytokines, 4 supplements and hydrocortisone; (2) SCGM+SP group: SCGM containing 6 cytokines, 4 supplements and hydrocortisone; (3) SCGM+UCM group: a culture medium mixture of 5% (v/v) c-SF-UCM and 95% (v/v) SCGM containing 6 cytokines and hydrocortisone; and (4) SCGM group: SCGM containing 6 cytokines and hydrocortisone. The 6 cytokines, hydrocortisone and 4 supplements used herein are the same as described in example 2.
The cells are cultured at a cell density of 2.5×10^4 cells/ml. The above medium mixture is 50-80% replenished every 4 days and the cells (including CD34+ cells) are maintained at a cell density of 2.5-10×10^4 cells/ml. At day 12, cumulative total cell expansion folds and CD34+ (ISHAGE) expansion folds are calculated.
In this experiment, the PC group and S3-3 group is the same as the previous examples. The culture medium is 50% replenished every 4 days, and cells are maintained at a cell density of 2.5-5×10^4 cells/ml. […]

O=C1O[C@H]([C@@H](O)CO)C(O)=C1O [vitamin C, L-ascorbic acid]
CD34+ (ISHAGE) expansion folds: alone can support the expansion
cumulative total cell expansion folds: alone can support the expansion

Cc1c(C)c2c(c(C)c1O)CC[C@@](C)(CCC[C@H](C)CCC[C@H](C)CCCC(C)C)O2 [vitamin E, α-tocopherol]
CD34+ (ISHAGE) expansion folds: alone is also sufficient in supporting the expansion
cumulative total cell expansion folds: alone is also sufficient in supporting the expansion

transferrin (TF): transferrin, supplement used at 30 μg/ml
CD34+ (ISHAGE) expansion folds: does not further increase the enhancement to any appreciable extent
cumulative total cell expansion folds: does not further increase the enhancement to any appreciable extent
